Like-named read-outs stand apart in the source and are kept apart here.
Experiments:
[1] = molecular target: T1, wild-type HCV genotype 1b NS5B protein (recombinant HCV polymerase) (Hepatitis C virus genotype 1b, UniProt Q9WMX2); experiment: HCV polymerase enzyme assay, wild-type; type: biochemical
T1 construct: approximately 65 kDa HCV genotype 1b NS5B protein were used to generate recombinant HCV polymerases; made in house
From the text: (§1) Test compounds in the form of nucleoside triphosphates were examined for inhibitory activity against purified HCV polymerase in a standard assay. Bacterial expression constructs encoding the approximately 65 kDa HCV genotype 1b NS5B protein were used to generate recombinant HCV polymerases (with a deletion of the 21 carboxy terminal amino acids). Both the wild-type genotype 1b protein and protein containing the S282T mutation were expressed and purified for use in the enzymatic activity assay.
(§2) The enzymatic activity assay measured the inhibitory effect of increasing concentrations of test compound on the incorporation of α-[^33P]-labeled nucleotide into trichloroacetic acid-precipitable material. Recombinant polymerase and synthetic RNA template were combined in reaction buffer containing ribonucleoside triphosphates, α-[^33P]-labeled nucleotide and eight concentrations of test compound in three-fold dilutions. Reactions were incubated for two hours at 30° C.
(§3) Reactions were terminated by the addition of ice-cold trichloroacetic acid and sodium pyrophosphate to promote precipitation of newly-synthesized ribonucleic acid. Precipitable material from the reactions was collected by filtration onto 96-well filter plates, washed extensively with water, and quantified by liquid scintillation.
(§4) The inhibitory activity of test compounds was determined by fitting results to dose-response curves using XLfit software.

[2] = system: HCV genotype 1b replicon in Huh-7-derived cell line (Zluc); experiment: HCV replicon assay (luciferase reporter); type: cell-based
Method: Huh-7-derived cell line (Zluc) that harbors an HCV genotype 1b replicon and a luciferase reporter gene was grown in Dulbecco's Modified Eagle Medium (DMEM) supplemented with 10% fetal bovine serum, 2 mM GlutaMAX, 1% MEM nonessential amino acids, 100 IU/mL penicillin, 100 μg/mL streptomycin, and 0.5 mg/mL Geneticin® (G418). For dose response testing the cells were seeded in 96-well plates at 7.5×10^3 cells per well in a volume of 50 μL, and incubated at 37° C./5% CO2. Drug solutions were made up freshly in Huh-7 media as 2× stocks. Ten additional 5-fold dilutions were prepared from these stocks in DMEM without G418. At least three hours after Zluc cells were seeded, drug treatment was initiated by adding 50 μL of drug dilutions to the plates in duplicate. Final concentrations of drug ranged from 100 μM to […]. Cells were then incubated at 37° C./5% CO2. Alternatively, compounds were tested at two concentrations (1 μM and 10 μM). […] For this, media was removed from the plates via gentle tapping. Fifty microliters of ONE-glo luciferase assay reagent was added to each well. The plates were shaken gently for 3 min at room temperature and luminescence was measured on a Victor^3 V 1420 multilabel counter (Perkin Elmer) with a 1 second read time using a 700 nm cut-off filter. The EC50 values were calculated from dose response curves from the resulting best-fit equations determined by Microsoft Excel and XLfit 4.1 software. When screening at two fixed concentrations, the results were expressed as % inhibition at 1 μM and 10 μM.

[3] = system: Zluc cells; experiment: Cytotoxicity evaluation, CellTiter-Blue Cell Viability Assay; conditions: read-out: HCV Replicon CC50; Zluc cells, CellTiter-Blue
[4] = as above; conditions: human
[5] = molecular target: T2, HCV genotype 1b NS5B protein containing the S282T mutation (Hepatitis C virus genotype 1b, UniProt Q9WMX2, S2701T); experiment: HCV polymerase enzyme assay, S282T mutant; type: biochemical
T2 construct: approximately 65 kDa HCV genotype 1b NS5B protein were used to generate recombinant HCV polymerases; made in house
From the text: as §1, §2, §3, §4

[6] = Zluc cells, genotype 1b replicon, 72 hours of incubation, read-out: HCV Replicon EC50
[7] = Hepatitis C virus, 72 h, read-out: HCV Replicon EC50, Zluc cells, genotype 1b replicon, 72 hours of incubation
[8] = Hepatitis C virus, 72 h, Zluc cells, genotype 1b replicon, 72 hours of incubation, read-out: HCV Replicon EC50
[9] = Zluc cells (HCV replicon cells)

Structure (SMILES) | IC50 [1] | CC50 at 72 h [4] | EC50 [2, 8] | further results
C[C@@]1(N)[C@H](O)[C@@H](COP(=O)(O)OP(=O)(O)OP(=O)(O)O)O[C@H]1n1ccc(N)nc1=O [Compound 206] | 1 to 10 µM | – | – | –
CC(C)OC(=O)[C@H](C)NP(=O)(OC[C@H]1O[C@@H](n2ccc(=O)[nH]c2=O)[C@H](N)[C@@H]1O)Oc1ccccc1 (single isomer, unassigned) [Compound 526 Diastereomer 2] | – | – | – | EC50 [2, 6]: > 10 µM; CC50 [3]: > 50 µM
CC(C)OC(=O)[C@H](C)NP(=O)(OC[C@H]1O[C@@H](n2ccc(N)nc2=O)[C@H](N=[N+]=[N-])[C@@H]1O)Oc1ccccc1 (mixture of isomers) [Compound 530 Diastereomer Mix] | – | > 50 µM | – | EC50 [2, 7]: > 10 µM
C[C@@]1(N)[C@H](O)[C@@H](CO)O[C@H]1n1ccc(=O)[nH]c1=O [Reference Compound 103, reference compound] | – | – | > 10 µM | CC50 at 72 h [4, 9]: > 50 µM
CC(C)OC(=O)[C@@H](C)N[P@@](=O)(OC[C@H]1O[C@@H](n2ccc(N)nc2=O)[C@](C)(C#N)[C@@H]1O)Oc1ccccc1 [Compound 1a] | – | > 50 µM | > 10 µM | –
CC1(C#N)C(O)C(CO)OC1n1ccc(N)nc1=O (stereo not shown) [Reference Compound A9b, reference compound] | – | – | – | EC50 [2, 6]: 1 to 10 µM; CC50 [3]: > 50 µM
CC(C)OC(=O)[C@H](C)NP(=O)(OC[C@H]1O[C@@H](n2ccc(N)nc2=O)[C@H](N=[N+]=[N-])[C@@H]1O)Oc1ccccc1 (single isomer, unassigned) [Compound 530 Diastereomer 1] | – | > 50 µM | – | EC50 [2, 7]: > 10 µM
C[C@@]1(C#N)[C@H](O)[C@@H](COP(=O)(O)OP(=O)(O)OP(=O)(O)O)O[C@H]1n1ccc(N)nc1=O [Compound 205] | 0.25 to 1 µM | – | – | –
CC(C)OC(=O)[C@H](C)NP(=O)(OC[C@H]1O[C@@H](n2ccc(=O)[nH]c2=O)[C@](C)(N=[N+]=[N-])[C@@H]1O)Oc1ccccc1 (single isomer, unassigned) [Reference Compound A18 Diastereomer 1, reference compound] | – | > 50 µM | > 10 µM | –
C[C@@]1(N)[C@H](O)[C@@H](COP(=O)(O)OP(=O)(O)OP(=O)(O)O)O[C@H]1n1cnc2c(N)ncnc21 [Compound 208] | 1 to 10 µM | – | – | IC50 [5]: > 10 µM
CC(C)OC(=O)[C@H](C)NP(=O)(OC[C@H]1O[C@@H](n2ccc(=O)[nH]c2=O)[C@H](N=[N+]=[N-])[C@@H]1O)Oc1ccccc1 (single isomer, unassigned) [Compound 528 Diastereomer 1] | – | > 50 µM | > 10 µM | –
CC(C)OC(=O)[C@H](C)NP(=O)(OC[C@H]1O[C@@H](n2ccc(=O)[nH]c2=O)[C@](C)(N)[C@@H]1O)Oc1ccccc1 (single isomer, unassigned) [Reference Compound A19 Diastereomer 2, reference compound] | – | – | – | EC50 [2, 6]: 1 to 10 µM; CC50 [3]: > 50 µM
C[C@@]1(N=[N+]=[N-])[C@H](O)[C@@H](COP(=O)(O)OP(=O)(O)OP(=O)(O)O)O[C@H]1n1ccc(=O)[nH]c1=O [Compound 202] | 0.25 to 1 µM | – | – | IC50 [5]: > 10 µM
C[C@@]1(N)[C@H](O)[C@@H](COP(=O)(O)OP(=O)(O)OP(=O)(O)O)O[C@H]1n1ccc(=O)[nH]c1=O [Compound 203] | 1 to 10 µM | – | – | IC50 [5]: > 10 µM
CC(C)OC(=O)[C@H](C)NP(=O)(OC[C@H]1O[C@@H](n2ccc(=O)[nH]c2=O)[C@](C)(N)[C@@H]1O)Oc1ccccc1 (single isomer, unassigned) [Reference Compound A19 Diastereomer 1, reference compound] | – | > 50 µM | – | EC50 [2, 6]: > 10 µM
C[C@@]1(N=[N+]=[N-])[C@H](O)[C@@H](CO)O[C@H]1n1ccc(=O)[nH]c1=O [Reference Compound 102, reference compound] | – | – | > 10 µM | CC50 at 72 h [4, 9]: > 50 µM
CC(C)OC(=O)[C@H](C)NP(=O)(OC[C@H]1O[C@@H](n2ccc(=O)[nH]c2=O)[C@H](N=[N+]=[N-])[C@@H]1O)Oc1ccccc1 (single isomer, unassigned) [Compound 528 Diastereomer 2] | – | – | – | EC50 [2, 6]: > 10 µM; CC50 [3]: > 50 µM
C[C@@]1(C#N)[C@H](O)[C@@H](COP(=O)(O)OP(=O)(O)OP(=O)(O)O)O[C@H]1n1ccc(=O)[nH]c1=O [Compound 204] | < 0.25 µM | – | – | IC50 [5]: 1 to 10 µM
Nc1ccn([C@@H]2O[C@H](COP(=O)(O)OP(=O)(O)OP(=O)(O)O)[C@@H](O)[C@H]2N)c(=O)n1 [Compound 207] | 0.25 to 1 µM | – | – | –
CC(C)OC(=O)[C@H](C)NP(=O)(OC[C@H]1O[C@@H](n2ccc(N)nc2=O)[C@H](N)[C@@H]1O)Oc1ccccc1 (single isomer, unassigned) [Compound 531 Diastereomer 1] | – | > 50 µM | – | EC50 [2, 7]: > 10 µM
CC(C)OC(=O)[C@H](C)NP(=O)(OC[C@H]1O[C@@H](n2ccc(=O)[nH]c2=O)[C@H](N)[C@@H]1O)Oc1ccccc1 (single isomer, unassigned) [Compound 526 Diastereomer 1] | – | > 50 µM | > 10 µM | –
C[C@]1(N=[N+]=[N-])C(n2cnc3c(N)ncnc32)O[C@H](CO)[C@H]1O (stereo partly shown) [Reference Compound 101, reference compound] | – | – | > 10 µM | CC50 at 72 h [4, 9]: > 50 µM
C[C@@]1(N=[N+]=[N-])[C@H](O)[C@@H](COP(=O)(O)OP(=O)(O)OP(=O)(O)O)O[C@H]1n1cnc2c(N)ncnc21 [Compound 201] | 0.25 to 1 µM | – | – | IC50 [5]: > 10 µM

From patent publication US10231986B2, “Amino acid phosphoramidate pronucleotides of 2′-cyano, azido and amino nucleosides for the treatment of HCV” (Centre National De La Recherche Scientifique, priority 2013, dated 2019)
